The results in this text go back to article PMC5607274, “An iterative compound screening contest method for identifying target protein inhibitors using the tyrosine-protein kinase Yes” (Scientific Reports, 2017).

T1 sequence (P07947 2-543): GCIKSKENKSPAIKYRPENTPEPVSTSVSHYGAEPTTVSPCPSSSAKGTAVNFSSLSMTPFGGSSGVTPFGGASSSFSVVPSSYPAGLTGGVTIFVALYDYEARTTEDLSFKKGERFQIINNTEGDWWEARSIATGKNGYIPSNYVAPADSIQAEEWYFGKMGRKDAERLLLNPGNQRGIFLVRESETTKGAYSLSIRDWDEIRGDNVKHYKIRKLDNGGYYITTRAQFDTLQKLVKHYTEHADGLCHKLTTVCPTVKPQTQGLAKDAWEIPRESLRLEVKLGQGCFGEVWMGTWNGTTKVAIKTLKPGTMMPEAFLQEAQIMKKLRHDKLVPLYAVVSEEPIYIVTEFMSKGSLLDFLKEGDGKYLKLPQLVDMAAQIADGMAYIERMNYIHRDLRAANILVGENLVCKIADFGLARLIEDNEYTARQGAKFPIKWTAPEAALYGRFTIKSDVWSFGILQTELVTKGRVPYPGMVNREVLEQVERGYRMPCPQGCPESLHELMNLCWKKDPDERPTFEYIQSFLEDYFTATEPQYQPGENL

The first assay concerns the target T1, human recombinant Yes [a.a. 2–543 (end)] (Homo sapiens, UniProt P07947).
T1 construct: human recombinant Yes [a.a; 2–543 (end)]; purchased BPS Bioscience 40488
Briefly: ADP-Glo kinase assay, inhibition rates of Yes phosphorylation activity (first and second screening). Format: biochemical. Particulars: first screening; mean of n = 4 wells; 10 μmol L−1 compound. The gist of the method:
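Hits from a first pass were rescreened after re-dissolution from fresh powder. The first pass reported the mean inhibition rate of quadruplicate wells per compound. Activity was that of recombinant human Yes [a.a. 2–543] kinase, read out with the ADP-Glo ADP-detection method.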
(In general: In ADP-Glo the light output rises with the ADP produced.)
On to `O=C(CCCSc1nc2ccccc2[nH]1)Nc1ccc(-c2nc3ccccc3[nH]2)cc1` [Compound Z30270226], for which the “First screening IR (inhibition rate)” value came out at 17%. As for `COC(=O)c1ccc(CNC(=O)Cn2c(=O)c3c(ncn3CCC(C)C)n(Cc3ccccc3)c2=O)cc1` [Compound Z24149625], the “First screening IR (inhibition rate)” value worked out at 8%.

With `Nc1ccnc(-c2cncs2)n1` [Compound Z1407063064], the “First screening IR (inhibition rate)” value is recorded as -14%. The same measure, in the same setting: as for `COC(=O)Cn1ncc2c(N3CCCC34CCCCC4)ncnc21` [Compound Z1527076116], the figure is -3%; as for `CCCN1CCN(c2ccc(S(=O)(=O)NC3CCC(C)CC3)cc2[N+](=O)[O-])CC1` (centres unmarked) [Compound Z31152357], -14%. On the same count and under the same terms, the figure for `Cc1sc2nc(CN3CCOCC3)nc(Oc3ccc(NC(=O)c4ccc(C(C)(C)C)cc4)cc3)c2c1C` [Compound Z31089732] is -13%; for `O=C(NCc1ccncc1)c1cnn(-c2ccc(Cl)cc2)c1C(F)(F)F` [Compound Z94739043] it is 6%. On the same count and under the same terms, the figure for `Nc1c(S(=O)(=O)c2ccccc2)c2nc3ccccc3nc2n1CCNC(=O)c1ccc(Cl)cc1` [Compound Z56854331] is 9%; for `O=C(CSc1nc2ccccc2[nH]1)NC(=O)NCc1ccccc1` [Compound Z19649872] it is 7%; for `O=C(C1=C(O)C(=O)N(CCCn2ccnc2)C1c1ccc(Cl)cc1)c1ccco1` (centres unmarked) [Compound Z57237929] it is 20%. For the molecule `CC(=O)Nc1ccc(/C=C/C(=O)c2ccccc2-n2cccn2)cc1` [Compound Z839413590], the “First screening IR (inhibition rate)” value was -15%. Same read-out and setting: as for `Cn1c(O)c(N=NC(=O)c2ccc(COc3ccccc3-c3ccccc3)cc2)c2ccccc21` [Compound Z44853786], the figure is 9%; as for `CC(C)(C)c1nccc(Nc2cn[nH]c2)n1` [Compound Z1317605702], 42%; as for `Cn1ccnc1C(Nc1cnn(Cc2ccccc2)c(=O)c1Cl)c1ccccc1` (centres unmarked) [Compound Z185383718], 30%. On the same count and under the same terms, the figure for `COc1ccc(C)cc1C(C)NC(=O)CCc1nc2ccccc2[nH]1` (centres unmarked) [Compound Z197873940] is 60%. The same measure, in the same setting: the figure for `Cn1c(=O)[nH]c(=O)c2c1nc(N1CCC(Cc3ccccc3)CC1)n2CCSc1nnnn1-c1ccccc1` [Compound Z239083338] is 2%; for `CC(C(=O)NC(c1ccccc1)c1ccccc1)N1CCN(c2ncnc3c2cnn3C)CC1` (centres unmarked) [Compound Z238831180] it is 64%. As to `Cc1ccc(C)c(CN2CCN(c3nc4c(c(=O)[nH]c(=O)n4C)n3Cc3ccc(Cl)cc3)CC2)c1` [Compound Z237733696], the “First screening IR (inhibition rate)” value was found to be 8%.

Take `CC(C)c1ccc(SCc2nc(N)nc(N(C)C)n2)cc1` [Compound Z290622280]: the “First screening IR (inhibition rate)” value amounted to 4%. As to `COc1ccc(CN2CCN(Cc3c(-c4ccccc4)nc4ccccn34)CC2)cc1OC` [Compound Z89207636], the “First screening IR (inhibition rate)” value was found to be 45%.

As for `CC(NC(=O)Nc1ccc(F)cc1F)c1ccc(-n2cncn2)cc1` (centres unmarked) [Compound Z86212654], the “First screening IR (inhibition rate)” value is -3%. The same measure, in the same setting: as for `CCOC(=O)c1c(N)n(CC(C)NC(=O)C2CC2)c2nc3ccccc3nc12` (centres unmarked) [Compound Z56790662], the figure is -2%; as for `Cl.N#Cc1ccc(-c2cc(-c3ccccc3F)c3cc(Cl)ccc3n2)cc1` [Compound Z48955841], 3%; as for `COC(=O)c1sc2ncc(/C=C3\C(=O)Nc4ccccc43)cc2c1C` [Compound Z872035512], -4%.

`Clc1ccc(/C=N/Nc2ncnc3c2cnn3-c2ccccc2)cc1` [Compound Z56795594]: the “First screening IR (inhibition rate)” value came to 13%. The same measure, in the same setting: as for `CN(C)c1nc(N)nc(CSc2nnc(-c3ccccc3)n2C)n1` [Compound Z193722710], the figure is 6%; as for `NC(=O)Nc1ccc(-c2csc(CCc3ccccc3)n2)cc1` [Compound Z785638578], 0%; as for `Fc1ccc(/C=C2/CCCc3c2nc2ncnn2c3-c2ccc(F)cc2)cc1` [Compound Z56784264], 8%. In the case of `C#CC(C)(C)N(C)S(=O)(=O)c1ccc(S(C)(=O)=O)cc1` [Compound Z1911236831], the “First screening IR (inhibition rate)” value is listed as -10%. Still for that read-out and setting: as for `Cc1cc(NC(=O)C(C)SCC(=O)Nc2ccc(SC3CCCC3)cc2)no1` (centres unmarked) [Compound Z357095098], the figure is -13%. The same measure, in the same setting: as for `CC(Sc1n[nH]c(-c2cccs2)n1)C(=O)c1c[nH]c2ccccc12` (centres unmarked) [Compound Z19450299], the figure is 17%; as for `CCSc1ccc(C(=O)NCCc2nc(-c3ccco3)n[nH]2)cn1` [Compound Z1174718157], 62%. As to `Cc1nccn1-c1cncc(N2CCC3(CCCC3)CC2)n1` [Compound Z1578863056], the “First screening IR (inhibition rate)” value turned out to be 34%.

In the case of `CC(C)c1noc(C(C)S(=O)(=O)C/C=C/c2ccccc2)n1` (centres unmarked) [Compound Z436400008], the “First screening IR (inhibition rate)” value is given as 6%. The same measure, in the same setting: the figure for `Cc1ccccc1CN(C)S(=O)(=O)C1CCS(=O)(=O)CC1` [Compound Z968740596] is -2%; for `CN(C)c1nccc(N2CCN(Cc3ccc(Cl)o3)CC2)n1` [Compound Z1569249080] it is 27%; for `CCN(CC)c1ccc([N+](=O)[O-])cc1C(=O)Nc1ccc2nc(N3CCOCC3)sc2c1` [Compound Z70970124] it is 9%. With `C/C=C/C=C/C(=O)NCc1cccc(C(=O)NCc2ccco2)c1` [Compound Z737550454], the “First screening IR (inhibition rate)” value came out at 0%. On the same count and under the same terms, the figure for `COc1ccc(S(=O)(=O)N(C)Cc2ccc3c(c2)OCO3)cc1Br` [Compound Z74745150] is -25%. The same measure, in the same setting: as for `CC(C)c1ccc(-n2cc(O)c(C(=O)NCC(C)N3CCCCC3=O)n2)cc1` (centres unmarked) [Compound Z1820642882], the figure is -3%; as for `Cc1ccc(-c2cc(C(=O)O)c3c(C)nn(-c4ccc(C)cc4C)c3n2)cc1` [Compound Z55871149], 40%; as for `CC(C)=CC1C(C(=O)Nc2c(C)cc(C)cc2C)C1(C)C` (centres unmarked) [Compound Z169558548], 2%. The same measure, in the same setting: as for `O=C(Nc1ccccc1)C1CCN(C(=O)C2CCOCC2)CC1` [Compound Z96031302], the figure is 1%; as for `CCOc1ccc(-n2cc(-c3ccccc3)c3c(NCCO)ncnc32)cc1` [Compound Z57456164], 20%; as for `CCOC(=O)/C=c1\s/c(=C/c2ccc(N3CCOCC3)c([N+](=O)[O-])c2)c(=O)n1CC(=O)N1CCC(C)CC1` [Compound Z48712790], -4%. For `c1ccc(-n2ncc3c(SCCc4ccncc4)ncnc32)cc1` [Compound Z103069550], the “First screening IR (inhibition rate)” value is reported as 11%. The same measure, in the same setting: the figure for `CCS(=O)(=O)N1CCN(S(=O)(=O)C2CCS(=O)(=O)C2)CC1` (centres unmarked) [Compound Z805634984] is 2%; for `NC(=O)CCn1c(SCc2cn3ccccc3n2)nnc1-c1cccs1` [Compound Z269761360] it is 7%; for `O=C(CSc1ccc2c(c1)OCCCO2)Nc1ccc2c(c1)CCC2` [Compound Z18212324] it is 14%.

`Cc1cc(/C=C/C(=O)N2CCOCC2)c(C)n1-c1ccnn1C(C)C` [Compound Z79434439]: the “First screening IR (inhibition rate)” value worked out at 15%.

With `COc1ccc(-c2nc(NC(=O)c3ccc(NC(=O)c4ccccc4)cc3)n[nH]2)cc1` [Compound Z332936670], the “First screening IR (inhibition rate)” value turned out to be 14%.

`Cc1cccn2c(NC(=O)c3cccc(S(=O)(=O)NC(C)C)c3)c(-c3ccccc3)nc12` [Compound Z225376048]: the “First screening IR (inhibition rate)” value was 0%. As for `O=C1CCCN1c1ccc(Nc2nccc(C(F)(F)F)n2)cc1` [Compound Z285697278], the “First screening IR (inhibition rate)” value is given as -12%. Still for that read-out and setting: the figure for `CCCN(CCC)S(=O)(=O)c1cccc(S(N)(=O)=O)c1` [Compound Z237751694] is -9%; for `O=C(/C=C/c1cn(-c2ccccc2)nc1-c1cccnc1)c1ccc(Cl)c([N+](=O)[O-])c1` [Compound Z46041361] it is 19%; for `COc1ccc(-n2cc(-c3ccccc3)c3c(NCCOCCO)ncnc32)cc1` [Compound Z57456127] it is -8%. On the same count and under the same terms, as for `Cc1noc(C)c1COc1ccccc1C(=O)NCCSc1ccc(Cl)cc1` [Compound Z89513568], the figure is 17%. On to `Cl.Fc1ccccc1-c1c2c(nc3ccc(Cl)cc13)-c1ccccc1OC2` [Compound Z48955788], for which the “First screening IR (inhibition rate)” value is -15%. On the same count and under the same terms, the figure for `CC1(C)CN(S(=O)(=O)C2CS(=O)(=O)c3ccccc32)CCO1` (centres unmarked) [Compound Z1031114832] is -4%. Still for that read-out and setting: as for `CCCn1c(/C(Cl)=C/c2ccc(F)c(F)c2)nc2cc(S(=O)(=O)N3CCOCC3)ccc21` [Compound Z95254533], the figure is 14%; as for `O=C(NCC1CCCCC1)c1cc(-c2ccccc2)nc2c1cnn2Cc1ccncc1` [Compound Z108748406], 8%; as for `O=[N+]([O-])c1ccc2nc(CSc3ccc(C(F)(F)F)cn3)[nH]c2c1` [Compound Z45358726], 7%.

For the molecule `O=C(Nc1cc(-c2cccc([N+](=O)[O-])c2)sc1C(=O)O)c1ccc2c(c1)CCC2` [Compound Z204342388], the “First screening IR (inhibition rate)” value is listed as -1%.

The same assay, now with this note: second screening, dissolved from fresh powder; n = 4; 10 μmol L−1 compound.
On to `CC(C)(C)c1nccc(Nc2cn[nH]c2)n1` [Compound Z1317605702], for which the “Second screening IR (inhibition rate)” value is 7%. The same measure, in the same setting: as for `Cc1nccn1-c1cncc(N2CCC3(CCCC3)CC2)n1` [Compound Z1578863056], the figure is 0%.
